Measured values from paper PMC12715805, “Screening apelin analogues and a small molecule agonist as effective cardiovascular therapeutics against reperfusion injury” (RSC Medicinal Chemistry, 2025).
Where a SMILES comes first, the peptide text is derived from it. [ ]: non-standard residue; d: D form. The star is where a group is joined. Phe(4-Br) = N[C@@H](Cc1ccc(Br)cc1)C(=O)O; PEG6 = NCCOCCOCCOCCOCCOCCOCCC(=O)O; NMeL = CN[C@@H](CC(C)C)C(=O)O; Nle = CCCC[C@H](N)C(=O)O; Cbz = O=C(OCc1ccccc1)*; Aib = CC(C)(N)C(=O)O

Experiments:
rats = details: MI rat model; hypertension-induced cardiac dysfunction rat model; cited from earlier work
Excerpt: Another avenue being investigated is the use of small molecule as agonists for the apelinR, such as, Bristol Myers Squibb's BMS-986224,[26,27] Amgen's AMG986,[28] and Davenport's CMF-019.[29] […] In contrast, the two non peptidic apelinR agonists, BMS-98622 ...

[1] = tested on: wild-type male mice (C57BL/6); assay: Blood pressure lowering assay in anesthetized mice; type: in vivo, mouse
Experimental: The metabolically stable apelin analogues from each isoform, CbzPEG6–NMeLeu17A2 and NMeLeu13A2 along with the small molecule agonist, BMS-986224 (0.5 μmol kg^−1 infusion during 5 min for each compound), were tested for their BP lowering activity in anesthetized wild-type male mice (C57BL/6, 24–30 g). […] In contrast, the hypotensive effect of CbzPEG6–NMeLeu17A2 was observed immediately after infusion. This analogue reduced mean arterial pressure (MAP) by approximately 50% during the experiment, with the effect sustained for more than 30 minutes post-administration. Apelin can act on the endothelial layer of vasculature, leading to systemic changes in blood pressure by increasing the synthesis of nitric oxide (NO).[5] The effect of CbzPEG6–NMeLeu17A2 on […], which decreases the […] resistance by increasing eNOS activation and NO production through the activation of the PI3K/Akt signalling pathway on endothelial cells like other apelin analogues we tested in the previous studies.[5,11]
The blood pressure measurement and apelin injection method has been described in our previous research.[43] During the blood pressure testing, mice aged 12–14 weeks were anesthetized with 1.5% isoflurane in oxygen and monitored throughout the experiment. The blood pressure was measured using a PV loop catheter (model 1.2F, Transonic) […] into the left carotid artery. The monitor system (LabScribe 2.0. Scisense) recorded aortic blood pressure and heart rate. After a 20-minute baseline measurement, CbzPEG6–NMeLeu17A2, NMeLeu13A2, RI13, RI13A2, RI17, RI17A2, and BMS-986224 (0.5 μmol […] body weight) were diluted in saline and consistently infused for 5 min via the right jugular vein. For BMS-986224, 0.1% DMSO was added to saline to help with dilution. Blood pressure was continuously recorded for 60 minutes post-infusion.
3. Effects of APJ agonists on blood pressure
Figure S3. Different effects of apelin analog and receptor agonist on blood pressure and ischemia-reperfusion injury. A) the effect of CbzPEG6–NMeLeu17A2 (n=3) on mean arterial blood pressure (MAP), B) the effect of apelin 13 analog, NMeLeu13A2, on MAP (n=4). The effect of apelin 13 analog reverse enantiomers, C) RI13 (n=4) and D) RI13A2 (n=4), on MAP. The effect of apelin 17 reverse enantiomers, E) RI17 (n=4) and F) RI17A2 (n=4) on MAP. G) The effect of small molecule apelin receptor agonist BMS-986224 on blood pressure (n=4). The MAP recording between 50 and 60 minutes has been averaged and compared with their controls (placebo (n=4)). The vehicle for BMS-986224 is 0.1% DMSO (n=3). The arrow indicates the time when analogs were introduced. Values mean ±SEM and ****P<0.0001, compared to the control group.
(1 picture or pasted object on this page, not shown here)

[2] = tested on: isolated mouse heart (ischemia–reperfusion injury); assay: Ex vivo Langendorff heart perfusion with ischemia–reperfusion
phospho-Akt (Ser473) = assay: Western blot of Akt phosphorylation in left ventricular tissue after Langendorff ischemia–reperfusion; design: species or system mouse; details: n = 6 per group
Experimental: (§1) Fig. 4 Phosphorylation of Akt and ERK1/2 in left ventricular tissue following ischemia–reperfusion (IR) and treatment with apelin analogues. Protein lysates were analyzed by Western blotting and band intensities quantified by densitometry. (A) Representative Western blots for phosphorylated Akt (p-Akt, Ser473), total Akt, phosphorylated ERK1/2 (p-ERK1/2, Thr202/Tyr204), and total ERK1/2. (B) Quantification of p-Akt/Akt. (C) Quantification of p-ERK1/2/ERK1/2. Data are expressed in arbitrary units relative to aerobic perfusion (control) and presented as mean ± SEM (n = 6 per group). Statistical analysis was performed using one-way ANOVA with Tukey's multiple comparisons test. Symbol key: *p < 0.05 vs. aerobic perfusion; **p < 0.05 vs. aerobic perfusion and placebo; ***p < 0.05 vs. all other groups.
(§2) Protein expression was assessed by Western blot analysis. Left ventricular tissue samples from mice in the Langendorff protocol were homogenized in RIPA buffer supplemented with protease and phosphatase inhibitors (Thermo Fisher Scientific, Waltham, MA, USA). Lysates were cleared by centrifugation at 12 000 × g for 15 min at 4 °C, and protein concentration was determined by the BCA assay (Pierce, Thermo Fisher Scientific, Waltham, MA, USA). Equal amounts of protein (20 μg per lane) were separated on 10% SDS-polyacrylamide gels and transferred to polyvinylidene difluoride (PVDF) membranes (Immobilon-P, MilliporeSigma, Burlington, MA, USA). Membranes were blocked for 1 h at room temperature in 5% bovine serum albumin (BSA) prepared in Tris-buffered saline with 0.1% Tween-20 (TBST) and incubated overnight at 4 °C with the following primary antibodies (all from Cell Signaling Technology, Danvers, MA, USA): phospho-Akt (Ser473; #4060), total Akt (#2920), phospho-ERK1/2 (Thr202/Tyr204; #9101), and total ERK1/2 (#4696), each diluted 1 : 1000 in blocking buffer. […] Band intensities were quantified using ImageJ software (National Institutes of Health, Bethesda, MD, USA), and phosphorylated protein levels were normalized to their corresponding total protein.

[3] = tested on: phospho-ERK1/2 (Thr202/Tyr204); assay: Western blot of ERK1/2 phosphorylation in left ventricular tissue after Langendorff ischemia–reperfusion; design: species or system mouse; details: n = 6 per group
Experimental: as §1, §2

[4] = cited from earlier work
Excerpt: The apelinergic system is a regulator in cardiovascular function and has shown positive effects on myocardial contractility, vasodilation,[4,5] angiogenesis[6] and heart rate.[7] Apelin promotes vasodilation by stimulating nitric oxide (NO) production, with apelin potentiating phosphorylation of Akt and eNOS,[5,8] while its signalling through Akt and ERK pathways also helps regulate cardiac contractility and provides protection against cardiac hypertrophy.[9] Apelin peptide hormones are derived from a 77-residue pre-propeptide and exist as three major isoforms, differentiated by their length, ...

apelinR / human Gαi1 = molecular target: T1, apelinR / human Gαi1 (Homo sapiens, UniProt P35414); assay: ebBRET Gαi1 activation; type: cell-based; details: HEK293 cells transfected with apelinR, human Gαi1, Rap1GAP-RlucII, rGFP-CAAX; 10 min at 37 °C; mean ± SEM of 5 to 6 independent experiments; read-out: Gαi1 activation log EC50 (converted)
T1 sequence (P35414 1-380): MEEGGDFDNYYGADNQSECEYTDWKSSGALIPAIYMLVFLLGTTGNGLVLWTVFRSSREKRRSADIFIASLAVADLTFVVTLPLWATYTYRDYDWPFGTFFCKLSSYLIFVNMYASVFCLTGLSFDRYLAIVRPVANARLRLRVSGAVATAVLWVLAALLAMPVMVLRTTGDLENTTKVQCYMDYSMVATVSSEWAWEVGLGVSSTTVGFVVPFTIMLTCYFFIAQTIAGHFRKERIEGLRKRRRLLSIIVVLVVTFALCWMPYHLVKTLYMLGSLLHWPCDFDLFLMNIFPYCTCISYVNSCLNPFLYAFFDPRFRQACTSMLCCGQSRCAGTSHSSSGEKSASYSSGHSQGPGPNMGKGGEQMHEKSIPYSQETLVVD

apelinR / human Gαi2 = molecular target: T2, apelinR / human Gαi2 (Homo sapiens, UniProt P35414); assay: ebBRET Gαi2 activation; type: cell-based; details: HEK293 cells transfected with apelinR, human Gαi2, Rap1GAP-RlucII, rGFP-CAAX; 10 min at 37 °C; mean ± SEM of 5 to 6 independent experiments; read-out: Gαi2 activation log EC50 (converted)
T2 sequence (P35414 1-380): T1 sequence (P35414 1-380)

apelinR / β-arrestin1 = molecular target: T3, apelinR / β-arrestin1 (Homo sapiens, UniProt P35414); assay: ebBRET β-arrestin1 recruitment; type: cell-based; details: HEK293 cells transfected with apelinR, β-arrestin1-RlucII, rGFP-CAAX; 10 min at 37 °C; mean ± SEM of 5 to 6 independent experiments; read-out: β-arr1 recruitment log EC50 (converted)
T3 sequence (P35414 1-380): T1 sequence (P35414 1-380)

apelinR / β-arrestin2 = molecular target: T4, apelinR / β-arrestin2 (Homo sapiens, UniProt P35414); assay: ebBRET β-arrestin2 recruitment; type: cell-based; details: HEK293 cells transfected with apelinR, β-arrestin2-RlucII, rGFP-CAAX; 10 min at 37 °C; mean ± SEM of 5 to 6 independent experiments; read-out: β-arr2 recruitment log EC50 (converted)
T4 sequence (P35414 1-380): T1 sequence (P35414 1-380)

Structure (SMILES): COc1cccc(OC)c1-n1c(NS(=O)(=O)[C@@H](C)[C@@H](OC(C)C)c2ncc(C)cn2)nnc1-c1cncc(C)c1 [AM-812337]
- change in BP in a myocardial infarction (MI) rat model and a hypertension-induced cardiac dysfunction rat model (in words) (rats): do not induce any change in BP

Structure (SMILES): CCCC[C@H](NC(=O)[C@@H]1CCCN1C(=O)CNC(=O)[C@H](CCCCN)NC(=O)[C@H](Cc1c[nH]cn1)NC(=O)[C@H](CO)NC(=O)[C@H](CC(C)C)N(C)C(=O)[C@H](CCCNC(=N)N)NC(=O)[C@@H]1CCCN1C(=O)[C@H](CCCNC(=N)N)NC(=O)[C@H](CCC(N)=O)NC(=O)[C@H](CCCNC(=N)N)NC(=O)[C@H](CCCNC(=N)N)NC(=O)[C@H](Cc1ccccc1)NC(=O)[C@H](CCCCN)NC(=O)CCOCCOCCOCCOCCOCCOCCNC(=O)OCc1ccccc1)C(=O)NC(C)(C)C(=O)N[C@@H](Cc1ccc(Br)cc1)C(=O)O [CbzPEG6–NMeLeu17A2] ({Cbz-PEG6}-KFRRQRPR[NMeL]SHKGP[Nle][Aib][Phe(4-Br)]-OH; C-terminus assumed)
- duration of hypotensive effect post-administration ([1]; 0.5 μmol kg^−1 infusion during 5 min, anesthetized C57BL/6 mice): more than 30 minutes
- reduction of mean arterial pressure (MAP) ([1]; 0.5 μmol kg^−1 infusion during 5 min, anesthetized C57BL/6 mice, n = 3): approximately 50%
- hypotensive effect (BP lowering activity, in words) ([1]; 0.5 μmol kg^−1 infusion during 5 min via jugular vein, anesthetized wild-type male C57BL/6 mice, compared to vehicle control): significant hypotensive effect
- cardioprotective effect / cardiac function recovery after ischemia–reperfusion (LVDP, RPP, max dP/dt, min dP/dt; in words) ([2]; 1 μM in perfusion buffer for first 10 min of reperfusion after 30 min ischemia, compared to placebo, one-way ANOVA, Dunnett): significant cardioprotective effect and positive inotropic effect
- cardiac recovery compared to the placebo treatment (left ventricle contractility, diastolic and systolic function) ([2]; 1 μM, 30 min ischemia, 40 min reperfusion, n = 7): nearly doubled
- Akt phosphorylation (p-Akt/Akt), mean difference relative to control (phospho-Akt (Ser473); left ventricular tissue after IR and 1 μM treatment, arbitrary units relative to aerobic perfusion (control), both p < 0.0001): −8.857
- Akt phosphorylation (p-Akt/Akt), mean difference versus NMeLeu13A2 (phospho-Akt (Ser473); left ventricular tissue after IR, arbitrary units, p < 0.001): −4.018
- Akt phosphorylation compared with IR (in words) (phospho-Akt (Ser473); left ventricular tissue after IR, one-way ANOVA, Tukey): robust enhancement
- ERK1/2 phosphorylation (p-ERK1/2/ERK1/2), mean difference versus NMeLeu13A2 ([3]; left ventricular tissue after IR, arbitrary units, p < 0.0001): −1.991
- ERK1/2 phosphorylation compared with control (in words) ([3]; left ventricular tissue after IR, p < 0.01 (NMeLeu13A2), p < 0.0001 (CbzPEG6–NMeLeu17A2)): significantly increased ERK1/2 phosphorylation
- ERK1/2 activation relative to IR (in words) ([3]; p < 0.0001): significant increase in ERK1/2 activation
- t1/2 in human plasma [4]: > 18 h

Structure (SMILES): CCCC[C@H](NC(=O)[C@@H]1CCCN1C(=O)CNC(=O)[C@H](CCCCN)NC(=O)[C@H](Cc1c[nH]cn1)NC(=O)[C@H](CO)NC(=O)[C@H](CC(C)C)N(C)C(=O)[C@H](CCCNC(=N)N)NC(=O)[C@@H]1CCCN1C(=O)[C@H](CCCNC(=N)N)NC(=O)[C@@H]1CCC(=O)N1)C(=O)NC(C)(C)C(=O)N[C@@H](Cc1ccc(Br)cc1)C(=O)O [NMeLeu13A2]
- EC50 (apelinR / human Gαi1): 0.0339 nM
- EC50 (apelinR / human Gαi2): 0.0219 nM
- EC50 (apelinR / β-arrestin1): 1.23 nM
- EC50 (apelinR / β-arrestin2): 1.15 nM
- half-life in human plasma [4]: ~4 h

Structure (SMILES): CSCC[C@H](NC(=O)[C@@H]1CCCN1C(=O)CNC(=O)[C@H](CCCCN)NC(=O)[C@H](Cc1c[nH]cn1)NC(=O)[C@@H](N)CO)C(=O)N1CCC[C@H]1C(=O)N[C@@H](Cc1ccccc1)C(=O)O [apelin 8-mer C-terminal] (H-SHKGPMPF-OH)
- EC50 (apelinR / human Gαi1): 490 nM
- EC50 (apelinR / human Gαi2): 347 nM

Structure (SMILES): CSCC[C@H](NC(=O)[C@@H]1CCCN1C(=O)CN)C(=O)N1CCC[C@H]1C(=O)N[C@@H](Cc1ccccc1)C(=O)O [apelin-5-mer C-terminal] (H-GPMPF-OH)
- EC50 (apelinR / human Gαi1): 1070 nM
- EC50 (apelinR / human Gαi2): 1150 nM
